Measured values published in ChEMBL document CHEMBL1201862, “PubChem BioAssay data set” (2004).
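Exposure lasted 48 hours, with cells grown in 96-well plates and compounds tested at five concentrations. At the GI50, growth is halved.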 The source made the active and inactive calls. No stated cut-off is given here; in the data, active = GI50 up to about 1.1 µM and inactive = higher.

Experiments:
Assay in all cases: inhibition of tumour cell growth, NCI panel, 48 h
EKVX = test system: EKVX
MDA-MB-231 = test system: MDA-MB-231
OVCAR-5 = test system: OVCAR-5
Malme-3M = test system: Malme-3M
HCT-116 = test system: HCT-116
MOLT-4 = test system: MOLT-4
SK-MEL-28 = test system: SK-MEL-28
HOP-62 = test system: HOP-62
UACC-257 = test system: UACC-257
MCF7 = test system: MCF7
A549 = test system: A549
T47D = test system: T47D
UACC-62 = test system: UACC-62
NCI/ADR-RES = test system: NCI/ADR-RES
DU-145 = test system: DU-145
SR = test system: SR
HCC 2998 = test system: HCC 2998
ACHN = test system: ACHN

SMILES | GI50 (EKVX) | GI50 (MDA-MB-231) | GI50 (OVCAR-5) | GI50 (Malme-3M) | GI50 (HCT-116) | GI50 (MOLT-4) | GI50 (SK-MEL-28) | GI50 (HOP-62) | GI50 (UACC-257) | GI50 (MCF7) | GI50 (A549) | GI50 (T47D) | GI50 (UACC-62) | GI50 (NCI/ADR-RES) | GI50 (DU-145) | GI50 (SR) | GI50 (HCC 2998) | GI50 (ACHN)
CCn1c2c(c3ccccc3c1=O)C(=O)c1ccccc1-2 | > 100 µM (inactive) | 85.7 µM (inactive) | > 100 µM (inactive) | > 100 µM (inactive) | > 100 µM (inactive) | 3.12 µM (inactive) | > 100 µM (inactive) | > 100 µM (inactive) | > 100 µM (inactive) | > 100 µM (inactive) | > 100 µM (inactive) | > 100 µM (inactive) | > 100 µM (inactive) | > 100 µM (inactive) | > 100 µM (inactive) |  |  | 
NC(=O)NNc1nc2ccccc2c(=O)n1NC(=O)C(=O)Nc1ccc(Cl)cc1Cl | 66.8 µM (inactive) | > 100 µM (inactive) | > 100 µM (inactive) | > 100 µM (inactive) | > 100 µM (inactive) | > 100 µM (inactive) | > 100 µM (inactive) | > 100 µM (inactive) | > 100 µM (inactive) | > 100 µM (inactive) | > 100 µM (inactive) | > 100 µM (inactive) | > 100 µM (inactive) | > 100 µM (inactive) |  | 65.2 µM (inactive) | > 100 µM (inactive) | > 100 µM (inactive)
S=C(Nc1cccc(Cl)c1)Nc1ccccn1 | 82 µM (inactive) |  | > 100 µM (inactive) | 27.6 µM (inactive) | > 100 µM (inactive) | > 100 µM (inactive) | > 100 µM (inactive) | > 100 µM (inactive) | > 100 µM (inactive) | > 100 µM (inactive) | > 100 µM (inactive) | > 100 µM (inactive) | > 100 µM (inactive) | > 100 µM (inactive) | > 100 µM (inactive) | > 100 µM (inactive) |  | 
C=CCN1CCC(O)(c2cc(C(=O)OCC)[nH]c2-c2cc(C)no2)C1 (centres undefined) | > 100 µM (inactive) | > 100 µM (inactive) | > 100 µM (inactive) | > 100 µM (inactive) | > 100 µM (inactive) | > 100 µM (inactive) | > 100 µM (inactive) |  | > 100 µM (inactive) |  | > 100 µM (inactive) | > 100 µM (inactive) | > 100 µM (inactive) | > 100 µM (inactive) | > 100 µM (inactive) |  |  | > 100 µM (inactive)
CC(=O)NC1C(OCc2ccccc2)OC(CO)C(O)C1OCC(=O)N[C@@H](C)C(=O)N[C@H](CCC(=O)NCCNc1ccc([N+](=O)[O-])c2[nH]c3ccccc3c(=O)c12)C(N)=O (some centres undefined) | 20.8 µM (inactive) | 28.1 µM (inactive) | 37.2 µM (inactive) | 84.5 µM (inactive) | 6.56 µM (inactive) |  | 33.2 µM (inactive) | 36.3 µM (inactive) | 22.1 µM (inactive) |  |  | 57 µM (inactive) | 18.7 µM (inactive) | 21.6 µM (inactive) | 33.4 µM (inactive) | 58.7 µM (inactive) | 10.9 µM (inactive) | 12.1 µM (inactive)
COc1cc(S(=O)(=O)Nc2ccc(-c3csc(N4C(=O)C(Cl)C4c4cccs4)n3)cc2)ccc1Cl (centres undefined) | 7.55 µM (inactive) |  | > 100 µM (inactive) | > 100 µM (inactive) | 98.9 µM (inactive) | 11.4 µM (inactive) | > 100 µM (inactive) | > 100 µM (inactive) | 28.1 µM (inactive) | 29.5 µM (inactive) | > 100 µM (inactive) | 54.6 µM (inactive) | 22.2 µM (inactive) | > 100 µM (inactive) | > 100 µM (inactive) | 5.32 µM (inactive) | 50.5 µM (inactive) | > 100 µM (inactive)
CCCCCCCCCCC[N+]1(Cc2ccccc2)CC2CCN(Cc3ccccc3)CC2C1 (centres undefined) | 0.323 µM (active) |  | 1.55 µM (inactive) | 0.342 µM (active) | 0.284 µM (active) | 0.199 µM (active) | 0.665 µM (active) | 0.818 µM (active) | 0.288 µM (active) | 0.447 µM (active) | 1.2 µM (inactive) | 0.166 µM (active) |  | 5.09 µM (inactive) | 0.47 µM (active) | 0.0546 µM (active) | 0.649 µM (active) | 1.17 µM (inactive)
N=C1N(/N=C/c2ccccn2)/C(=N\c2ccccc2)C(=S)N1c1ccccc1 | 3.41 µM (inactive) | 6.7 µM (inactive) | 4.74 µM (inactive) | 10.9 µM (inactive) | 2.87 µM (inactive) | > 100 µM (inactive) | 11 µM (inactive) | 10.2 µM (inactive) | 9.27 µM (inactive) |  | 5.51 µM (inactive) | 5.5 µM (inactive) | 1.17 µM (inactive) | 2.83 µM (inactive) | 3.31 µM (inactive) | > 100 µM (inactive) | 10.2 µM (inactive) | 2.55 µM (inactive)
Cc1cccc2cc3c(ccc4ccccc43)c[n+]12 | 4.61 µM (inactive) | 47.5 µM (inactive) | > 100 µM (inactive) | 1.77 µM (inactive) | 36.9 µM (inactive) | 4.89 µM (inactive) | 14.7 µM (inactive) | 7.89 µM (inactive) | 14 µM (inactive) | 13.5 µM (inactive) | 5.86 µM (inactive) |  | 23 µM (inactive) | > 100 µM (inactive) | 64.6 µM (inactive) | 6.43 µM (inactive) | 16.3 µM (inactive) | 65.3 µM (inactive)
CN(C)/C=C/C=C(/C=N/S(=O)(=O)C(F)(F)F)C1C=CN(S(=O)(=O)C(F)(F)F)C=C1 | 30.1 µM (inactive) | 31.1 µM (inactive) | 30.2 µM (inactive) | 32 µM (inactive) | 29.2 µM (inactive) | 26.2 µM (inactive) | 91.8 µM (inactive) | 39.4 µM (inactive) | 23.1 µM (inactive) |  | 32.4 µM (inactive) | 23.4 µM (inactive) | 42.3 µM (inactive) | 30.3 µM (inactive) | 37.2 µM (inactive) | 30.1 µM (inactive) | 28.1 µM (inactive) | 28.8 µM (inactive)
C[N+]1(C)CCCC(C#N)(c2ccccc2)CC1 (centres undefined) | > 100 µM (inactive) |  | > 100 µM (inactive) | > 100 µM (inactive) | > 100 µM (inactive) | > 100 µM (inactive) | > 100 µM (inactive) | > 100 µM (inactive) | > 100 µM (inactive) | > 100 µM (inactive) | > 100 µM (inactive) | > 100 µM (inactive) |  | > 100 µM (inactive) | > 100 µM (inactive) | > 100 µM (inactive) | > 100 µM (inactive) | > 100 µM (inactive)
COc1ccc2[nH]c3c(C)c4ccnc(NCCCN(C)CCCNc5ccc6nnn7c8ccccc8c(=O)c5c67)c4c(C)c3c2c1 | 1.01 µM (active) | 0.181 µM (active) | 1.24 µM (inactive) |  | 0.0217 µM (active) | 0.00104 µM (active) | 1.75 µM (inactive) | 0.714 µM (active) | 1.43 µM (inactive) | 0.0561 µM (active) | 0.0395 µM (active) | 1.81 µM (inactive) | > 10 µM (inactive) | 0.982 µM (active) |  | 0.335 µM (active) | 0.209 µM (active) | 0.0773 µM (active)
COc1ccc(-c2nc3ccccc3s2)cc1OC |  | 19.7 µM (inactive) | > 100 µM (inactive) |  | 45.1 µM (inactive) | > 100 µM (inactive) | > 100 µM (inactive) | 67.9 µM (inactive) | > 100 µM (inactive) |  | 51.6 µM (inactive) |  | 37.4 µM (inactive) | 42.5 µM (inactive) |  | > 100 µM (inactive) |  | 40.4 µM (inactive)
O=C1O[B-](c2ccccc2)(c2ccccc2)[NH+]2CCCC12 (centres undefined) | > 100 µM (inactive) | > 100 µM (inactive) | > 100 µM (inactive) | 51.1 µM (inactive) | 47 µM (inactive) | > 100 µM (inactive) | 99.5 µM (inactive) | > 100 µM (inactive) | 64.9 µM (inactive) |  | > 100 µM (inactive) | 76.9 µM (inactive) | > 100 µM (inactive) | 84.7 µM (inactive) | > 100 µM (inactive) | > 100 µM (inactive) |  | 75.7 µM (inactive)
C=C1C(OC2O[C@@H]3O[C@@]4(C)CC[C@H]5[C@H](C)CC[C@@H](C2=C)[C@@]35O4)O[C@@H]2O[C@@]3(C)CC[C@H]4[C@H](C)CC[C@@H]1[C@@]24O3 (some centres undefined) | > 50 µM (inactive) | > 50 µM (inactive) | > 50 µM (inactive) | > 50 µM (inactive) | > 50 µM (inactive) | > 50 µM (inactive) | > 50 µM (inactive) | > 50 µM (inactive) | > 50 µM (inactive) | > 50 µM (inactive) | > 50 µM (inactive) | > 50 µM (inactive) | > 50 µM (inactive) |  | > 50 µM (inactive) | > 50 µM (inactive) | > 50 µM (inactive) | > 50 µM (inactive)
O=C(O)CNc1ccc(C(=O)O)cc1 | > 100 µM (inactive) | > 100 µM (inactive) | > 100 µM (inactive) | > 100 µM (inactive) | > 100 µM (inactive) | > 100 µM (inactive) | > 100 µM (inactive) | > 100 µM (inactive) | > 100 µM (inactive) | > 100 µM (inactive) | > 100 µM (inactive) | > 100 µM (inactive) | > 100 µM (inactive) | > 100 µM (inactive) | > 100 µM (inactive) |  |  | > 100 µM (inactive)
Nc1ccc(/N=N/c2ccccc2)cc1 | 28.2 µM (inactive) | 32.7 µM (inactive) | > 100 µM (inactive) | 75.9 µM (inactive) | 54.6 µM (inactive) | 11.7 µM (inactive) | > 100 µM (inactive) | 42 µM (inactive) | > 100 µM (inactive) | 30.5 µM (inactive) | 32.6 µM (inactive) |  | 27.4 µM (inactive) | 34.8 µM (inactive) |  | 19.3 µM (inactive) | 61.5 µM (inactive) | 30.3 µM (inactive)
